# According to paper PMC6150365, “Simultaneous Determination of Seven Components in Rat Plasma by the UPLC-MS/MS Method and Application of Pharmacokinetic Studies to SimiaoYong’an Decoction” (Molecules : A Journal of Synthetic Chemistry and Natural …, 2017):
# Assay: Pharmacokinetic study in rats after oral administration of SYD extract and its single and combined TCM extracts (UPLC-MS/MS of plasma)
# Conditions: male, Sprague-Dawley, rat, plasma, po, n = 6; for AUC(0-t) / AUC(0-inf) / MRT last / MRT inf / Tmax / Cmax: rat plasma; for MRT last: MRT(0–t); for MRT inf: MRT(0–∞)
# [1] = 2.49 g/kg, oral SN extract 2.49 g/kg
# [2] = 3.38 g/kg extract (6.67 g/kg as herbs), oral SN + GU extract
# [3] = 3.38 g·kg^−1 (extract), oral SN + GU extract
# [4] = 3.98 g/kg extract (8.33 g/kg as herbs), oral SN + AS extract
# [5] = 4.5 g·kg^−1 (extract), oral LJ + SN extract
# [6] = 4.5 g·kg^−1 extract, oral LJ + SN extract
# [7] = 4.73 g/kg, oral LJ + SN + GU extract 4.73 g/kg
# [8] = 5.43 g/kg, oral LJ + SN + AS extract 5.43 g/kg
# [9] = 8.25 g/kg, oral SYD extract 8.25 g/kg
# Experimental: Pieces of LJ, SN, AS and GU were weighed according to the proportion of 3:3:2:1 with appropriate amounts. The mixed pieces were crushed and decocted two times (60 min each time) with water (1:10 w/v) after being soaked for 60 min. The decoctions were then combined and condensed to the concentration of 0.5 g/mL, after which 95% ethanol was slowly added to the concentrate until a final ethanol concentration of 70% was reached. The SYD solution was set at room temperature overnight and then was filtered. The solvent was recovered, and the residue was dried under reduced pressure. A certain amount of the water extract of SYD was weighed and then dissolved with purified water for intragastric (oral) administration solution. The single herbs and different combination groups such as LJ, SN, AS, GU, LJ + SN, LJ + AS, LJ + GU, SN + AS, SN + GU, AS + GU, LJ + SN + AS, LJ + SN + GU, LJ + AS + GU and SN + AS + GU were prepared according to the procedure of SYD.
# Male Sprague-Dawley (SD) rats (body weight 250 ± 10 g) were supplied by the SPF (Beijing) Biotechnology Co., Ltd. (Certificate No.: SCXK 2016-0002, Beijing, China). The animals were maintained in controlled conditions (temperature 20–25 °C, relative humidity 55–60% and 12-h light/12-h dark cycle) with free access to standard laboratory food and water for seven days of acclimation and then fasted for 12 h before each experiment but allowed to drink freely during this time.
# Ninety male SD rats were randomly separated into 15 groups and administered a dosage of extract via gastric gavage once per day; detailed information about the oral daily dose of SYD extract and the corresponding single and combined TCMs (LJ, SN, AS, GU, LJ + SN, LJ + AS, LJ + GU, SN + AS, SN + GU, AS + GU, LJ + SN + AS, LJ + SN + GU, LJ + AS + GU, SN + AS + GU and SYD) is listed in Table 4.
# Each plasma sample (200 μL) with 50 μL IS solution added was spiked into 100 μL 1% formic acid distilled water solution and then vortexed for 1 min. Protein was precipitated by adding 600 μL of methanol to the mixture. After being vortexed and sonicated, the samples were centrifuged at 25,000 r/min, 4 °C for 10 min. The supernatant of each sample was transferred to a new 2-mL centrifuge tube and evaporated to dryness by N2 at 40 °C. Finally, the residue was dissolved in 100 μL methanol–water (1:1, v/v), followed by centrifugation at 30,000 r/min, 4 °C for 10 min, and 10-μL supernatant aliquots were injected into the UPLC-MS/MS system for analysis.
# The SYD was decomposed into 15 groups of compatibility combinations (LJ, SN, AS, GU, LJ + SN, LJ + AS, LJ + GU, SN + AS, SN + GU, AS + GU, LJ + SN + AS, LJ + SN + GU, LJ + AS + GU, SN + AS + GU and SYD). The 15 combinations were weighed according to the proportion of 3:3:2:1 with appropriate amounts and prepared by the method described in “Section 3.2”. Six male SD rats (body weight 250 ± 10 g) of each compatibility group were used in the pharmacokinetic study. After 12-h fast, rats of the different groups were orally administered the respective extract dissolved in saline (Table 4). Venous blood (0.45 mL) was obtained from the orbit vein and collected in heparin-pretreated polypropylene centrifuge tubes at 0.083 h, 0.17 h, 0.25 h, 0.50 h, 0.75 h, 1.0 h, 1.5 h, 2.0 h, 3.0 h, 4.0 h, 6.0 h, 8.0, 12 h and 24 h post-dose. The plasma was separated by centrifugation at 8000 r/min for 10 min and then stored at −20 °C until analysis. The amount of each analyte in the plasma was estimated by UPLC-MS/MS analysis as described in Section 3.5.
# Non-compartmental methods using Phoenix WinNonlin 7.0 software provided by the Beijing University of Chinese Medicine were used to analyze plasma concentration versus time profiles and to estimate the following pharmacokinetic parameters: terminal elimination half-lives (t1/2), area under the plasma concentration versus time curve from zero to last sampling time (AUC), and the mean residence time (MRT).
smiles,measurement,setting,value
"COc1ccc(CCO[C@@H]2O[C@H](CO[C@@H]3OC[C@H](O)[C@H](O)[C@H]3O)[C@@H](OC(=O)/C=C/c3ccc(O)c(OC)c3)[C@H](O[C@@H]3O[C@@H](C)[C@H](O)[C@@H](O)[C@H]3O)[C@H]2O)cc1O [Angoroside C, angoroside C]",AUC(0-t),[1],90 ± 30 ng·h/mL
same,AUC(0-inf),[1],110 ± 20 ng·h/mL
same,MRT last,[1],3.03 ± 0.37 h
same,MRT inf,[1],18.1 ± 3.41 h
same,Tmax,"2.49 g/kg, Tmax, oral SN extract 2.49 g/kg",1.25 ± 0.59 h
same,half-life,"2.49 g/kg, t1/2, rat plasma, oral SN extract 2.49 g/kg",10.7 ± 6.13 h
same,MRT last,[2],2.86 ± 1.21 h
same,MRT inf,[2],4.99 ± 3.19 h
same,Tmax,"3.38 g/kg extract (6.67 g/kg as herbs), Tmax, oral SN + GU extract",1.11 ± 0.52 h
same,half-life,"3.38 g/kg extract (6.67 g/kg as herbs), t1/2, rat plasma, oral SN + GU extract",9.91 ± 4.62 h
same,AUC(0-t),[3],410 ± 60 ng·h/mL
same,AUC(0-inf),[3],420 ± 80 ng·h/mL
same,Cmax,"3.38 g·kg^−1 extract, oral SN + GU extract",330 ± 50 ng/mL
same,AUC(0-t),[4],450 ± 30 ng·h/mL
same,AUC(0-inf),[4],460 ± 30 ng·h/mL
same,MRT last,[4],2.85 ± 1.25 h
same,MRT inf,[4],5.01 ± 3.31 h
same,Tmax,"3.98 g·kg^−1, Tmax, oral SN + AS extract",1.03 ± 0.49 h
same,half-life,"3.98 g·kg^−1, t1/2, rat plasma, oral SN + AS extract",10 ± 4.72 h
same,Cmax,"3.98 g·kg^−1 extract, oral SN + AS extract",400 ± 20 ng/mL
same,MRT last,[5],2.88 ± 1.23 h
same,MRT inf,[5],5.22 ± 3.5 h
same,Tmax,"4.5 g·kg^−1 (extract), Tmax, oral LJ + SN extract",1.07 ± 0.54 h
same,half-life,"4.5 g·kg^−1 (extract), t1/2, rat plasma, oral LJ + SN extract",10.3 ± 5.06 h
same,AUC(0-t),[6],390 ± 460 ng·h/mL
same,AUC(0-inf),[6],400 ± 460 ng·h/mL
same,Cmax,[6],270 ± 330 ng/mL
same,AUC(0-t),[7],220 ± 90 ng·h/mL
same,AUC(0-inf),[7],230 ± 190 ng·h/mL
same,Cmax,[7],150 ± 150 ng/mL
same,MRT last,[7],2.95 ± 0.82 h
same,MRT inf,[7],7.88 ± 6.88 h
same,Tmax,"4.73 g/kg, Tmax, oral LJ + SN + GU extract 4.73 g/kg",1.29 ± 0.46 h
same,half-life,"4.73 g/kg, t1/2, rat plasma, oral LJ + SN + GU extract 4.73 g/kg",11.7 ± 6.52 h
same,AUC(0-t),[8],180 ± 130 ng·h/mL
same,AUC(0-inf),[8],200 ± 130 ng·h/mL
same,Cmax,[8],140 ± 130 ng/mL
same,MRT last,[8],3.05 ± 0.7 h
same,MRT inf,[8],8.16 ± 6.76 h
same,Tmax,"5.43 g/kg, Tmax, oral LJ + SN + AS extract 5.43 g/kg",1.38 ± 0.44 h
same,half-life,"5.43 g/kg, t1/2, rat plasma, oral LJ + SN + AS extract 5.43 g/kg",11.8 ± 6.58 h
same,AUC(0-t),[9],300 ± 290 ng·h/mL
same,AUC(0-inf),[9],310 ± 290 ng·h/mL
same,Cmax,[9],180 ± 200 ng/mL
same,MRT last,[9],3.01 ± 0.69 h
same,MRT inf,[9],7.01 ± 5.95 h
same,Tmax,"8.25 g/kg, Tmax, oral SYD extract 8.25 g/kg",1.38 ± 0.44 h
same,half-life,"8.25 g/kg, t1/2, rat plasma, oral SYD extract 8.25 g/kg",11.4 ± 6.34 h
same,Tmax,"[…], Tmax, oral SN + AS + GU extract […]",1.38 ± 0.44 h
same,half-life,"[…], t1/2, rat plasma, oral SN + AS + GU extract […]",11.6 ± 6.42 h
